The data set is described as follows: Human HepG2 cell viability assay in 384 well format. The format is toxicity, cell-based. The arrangement: dose 125 nL, time 70.5 hour; concentration not given beside the values. The note with it: HepG2 cells, read-out: Inhibition.
`CC[C@@]1(O)CCN(C(=O)CCNC(=O)c2ccc(F)cc2)C[C@H]1O`: the cytotoxicity at 70.5 h was -5.99%.
The value for `CN(Cc1ncc[nH]1)CC(c1cccs1)N1CCOCC1` (stereo not given) was 17.4%.
In the case of `Cc1occc1CNC(=O)C1CCN(C(=O)OC(C)(C)C)C1` (stereo not given), the cytotoxicity at 70.5 h is -0.732%.
Next, `Cc1nc([C@H]2C[C@@H]3CCN(Cc4scnc4C)C[C@H]3O2)no1`: -5.9%; `CCCN(c1ccccc1C(=O)O)S(=O)(=O)c1ccc2ccccc2c1`: -6.16%; `COc1cccc(OCC2CCCN(C(C)=O)C2)c1` (stereo not given): -18.9%.
Consider `CS(=O)(=O)N1CCC2(CCCN(Cc3ccccn3)C2)CC1`, for which the cytotoxicity at 70.5 h was 10.3%.
On to `CN1C(=O)C2(CC(=O)Nc3c2cnn3C(C)(C)C)c2c(Cl)cccc21` (stereo not given), for which the cytotoxicity at 70.5 h was -19.1%.
Take `c1cnn(CC2CCCN2c2ncnc3sccc23)c1` (stereo not given): the cytotoxicity at 70.5 h came to 31.2%.
Next, `COCCn1cc(NCc2cn(C)nc2-c2ccncc2)cn1`: 21.2%; `Cc1[nH]nc2ncc(C(=O)N3CCN(CCC(C)C)CC3)cc12`: 25.8%; `O=C(CCN1CCOC1=O)N(Cc1ccncc1)CC1CCCO1` (stereo not given): 4.43%.
Consider `COC(=O)N1CCc2ccccc2C1C(=O)NCc1cccs1` (stereo not given), for which the cytotoxicity at 70.5 h was -6.75%.
The value for `CCOCCCNC(=O)c1ccccc1S(C)(=O)=O` was -15.5%; that for `Cn1[nH]c(C2CC2)c(-c2ccc3c(c2)OCO3)c1=N` was 8.3%.
The value for `O=C(c1ccco1)N1C[C@H]2CCCN(CC3CC3)[C@H]2C1` was -16.9%.
`Cn1nnc2c1CCN(Cc1ccncc1)C2COCc1ccccc1` (stereo not given): the cytotoxicity at 70.5 h is -6.13%.
Next, `O=C(NCc1cccnc1-n1cncn1)c1cncc(Br)c1`: 0.0598%; `O=C(NCCSC1CCCC1)c1ccc(F)cc1F`: -5.35%; `Cc1nc(CN2CCCn3cnc(COCC4CC4)c3C2)cs1`: -1.49%.
With `Cc1nn(C)c(C)c1C1CCCN1Cc1nc(N)c2ccccc2n1` (stereo not given), the cytotoxicity at 70.5 h is -2.07%.
With `Cn1ccc(C(=O)N2CCN(c3cc(C#N)ccn3)CC2)cc1=O`, the cytotoxicity at 70.5 h is -7.65%.
For the compound `CN(Cc1ccccc1)c1ncccc1CNC1CCSCC1`, the cytotoxicity at 70.5 h was -2.31%.
Next, `O=C(NCc1cn2c(n1)CN(CC1CCOCC1)CC2)C1CCC1`: -2.34%.
The value for `c1ccc(-c2ccc(CN3CCOC(Cn4cncn4)C3)cc2)cc1` (stereo not given) was 22%; that for `CC(C)c1cc(C2CCN(C(=O)Cn3cnc4ccccc43)CC2)[nH]n1` was 4.36%.
Regarding `OCCCNC1CCc2cc3c(cc21)OCCO3` (stereo not given), the cytotoxicity at 70.5 h was -4.1%.
On to `c1cc(CN2CCCC(c3nnc(-c4cnccn4)o3)C2)ccn1` (stereo not given), for which the cytotoxicity at 70.5 h is -8.48%.
With `Cc1[nH]c2ccccc2c1-c1ccnc(N[C@@H](C)CO)n1`, the cytotoxicity at 70.5 h is -3.05%.
On to `Cc1ccc(CN2CCCn3c(nc(Cn4ccnc4)cc3=O)C2)s1`, for which the cytotoxicity at 70.5 h is 8.11%.
Next, `COc1c(C(=O)NCC(C)Sc2ccccc2)c(C)nn1C` (stereo not given): -5.69%.
Next, `COC(C)(C)CNC(=O)N(C)Cc1nc(-c2ccccc2)c[nH]1`: 24.9%.
Turning to `CC(C)C(=O)N1CCCC(c2ncncc2-c2ccncc2)C1` (stereo not given), the cytotoxicity at 70.5 h was 13.6%.
On to `COCCC(=O)N1CCC2(CCN(Cc3cccc(F)c3)CC2)CC1`, for which the cytotoxicity at 70.5 h is -5.26%.
As to `O=C(N1CCN(CCO)CC1)C1(O)Cc2ccccc2C1`, the cytotoxicity at 70.5 h is -4.44%.
The value for `CCC(CO)N(Cc1ccccn1)C(=O)c1cccc(C#N)c1` (stereo not given) was -1.64%; that for `CCCc1nc(C)c(C(=O)NC2CCN(CC(N)=O)CC2)s1` was -11.5%.
Next, `COc1ccc(-c2cc3nc(CCNC(=O)CN(C)C)nn3cn2)cc1`: -1.8%; `COCCCC(=O)Nc1[nH]nc(-c2ccncc2)c1C`: -3.19%.
Next, `COCCCn1ccc(NCc2ccc(NC(C)=O)cc2)n1`: -6.7%; `CC(C)c1nccn1CCC(=O)NCC(C)(O)c1ccco1` (stereo not given): -5.68%.
Turning to `COc1ccc(COCC(O)CNC(=O)c2ccc(C)c(F)c2)cc1` (stereo not given), the cytotoxicity at 70.5 h is -1.89%.
Next, `Cc1nn(C)c(C)c1CC(C)NC(=O)NCc1ccoc1C` (stereo not given): -4.68%.
Next, `CCc1nccn1CCCNC(=O)c1cnn(-c2ccccc2OC)c1`: -5.05%.
The value for `CN1CCN(Cc2cnc3n2CCN(C(=O)c2cnccn2)C3)CC1` was -4.26%.
`O=C(Nc1cc(C(F)(F)F)c[nH]c1=O)C1CCCN1` (stereo not given): the cytotoxicity at 70.5 h is -10.7%.
The value for `COc1ccc(S(=O)(=O)N2CCOC(C)(C(N)=O)C2)cc1` (stereo not given) was -3.24%; that for `CC(C)c1nnc2n1CCN(C(=O)c1ccc(OCC3CC3)nc1)C2` was 11%.
For `O=C(CN1CCNCC1)N1CC[C@@H](c2ccc3ccccc3c2)[C@H](O)C1`, the cytotoxicity at 70.5 h was -6.87%.
For the compound `Cc1ccc(C(=O)N2CCC3(CC2)C(=O)NCCN3C)cc1O`, the cytotoxicity at 70.5 h was -6.34%.
As for `Cn1cc(CN2CCC3(CCN(c4cnn(C)c4)C3=O)C2)cn1` (stereo not given), the cytotoxicity at 70.5 h is -10.8%.
Take `CC(NC(=O)CCCOc1ccc(F)cc1)c1nnc2n1CCC2` (stereo not given): the cytotoxicity at 70.5 h was -1.76%.
Next, `CC1CN(CC(=O)Nc2nncs2)CCN1Cc1nccn1C` (stereo not given): -4.59%; `CCOC(=O)N1CCN(c2nc(NCCO)c3ccccc3n2)CC1`: -9.59%; `CC(c1nc(C2CC2)no1)N1CCN(CCOCC(F)(F)F)CC1` (stereo not given): -8.3%.
Next, `CN(C)c1ccc(C(=O)N2CCC(c3cc4ncccc4[nH]3)CC2)cc1`: -1.4%; `Cc1cccc2sc(NC(=O)CN3CCCC4(CC3)CNC(=O)O4)nc12` (stereo not given): -7.84%.
The value for `Cc1cc(N(C)C)nc(N2CCN(Cc3nccn3C)CC2)n1` was -5.76%; that for `Cc1cc(CNC(=O)c2cnoc2C)c(C)o1` was -12%.
Take `Cc1nc(C2CCCN2Cc2ncc(C(C)C)o2)no1` (stereo not given): the cytotoxicity at 70.5 h was found to be 42.3%.
Next, `COCCN1CCC2(CC1)CC(c1cccnc1)CO2` (stereo not given): -4.14%; `CCc1nnc2n1CCN(C(=O)c1ccc3cc[nH]c3c1)C2`: -4.35%.
Take `CN1CCN(C(=O)Cn2ccc3c(Cl)cccc32)CC1`: the cytotoxicity at 70.5 h is -12.2%.
As for `Cc1noc([C@@]23CCO[C@@H]2CCN(C(=O)c2cc(C)c(C)s2)C3)n1`, the cytotoxicity at 70.5 h is -0.38%.
The value for `CC(Cc1cn(CCc2n[nH]c(=O)[nH]2)nn1)c1ccccc1` (stereo not given) was -7.35%.
The value for `CCN(Cc1noc(C)n1)C(=O)CC1C(=O)NCCN1CC(C)(C)C` (stereo not given) was 9.61%; that for `CC(C)(C)Cc1nnc(NCc2ccsc2)o1` was 28.5%.
The value for `CCN1CC(COc2ccc(OC)cc2)Oc2ccncc2S1(=O)=O` (stereo not given) was -0.442%; that for `N#Cc1cc(F)c(NCCc2ccc(F)cc2)c(F)c1` was -2.9%.
On to `CCN(Cc1cc(=O)n2cc(Br)ccc2n1)C1CC1`, for which the cytotoxicity at 70.5 h is -7.36%.
As for `CN(CCCOc1ccccc1Cl)C(=O)CN1CCCCCC1=O`, the cytotoxicity at 70.5 h is -0.255%.
Next, `COc1ccccc1CCN(C)C(C)c1nc(-c2cccnc2)no1` (stereo not given): 21.2%.
The value for `Cc1ccc(-c2ccnc(NC(C)c3c(C)n[nH]c3C)n2)c(C)n1` (stereo not given) was -8.64%.
The value for `Cc1cn2c(=O)c(-c3ccnc(N[C@@H](C)CO)n3)cnc2s1` was -5.83%; that for `Cc1nc2c(c(NCCNC(=O)C(C)C)n1)Cc1ccccc1OC2` was -6.01%; that for `CCNC(=O)C1(Cc2cc(-c3ccccc3)no2)CCCN(C(C)C)C1` (stereo not given) was -6.54%.
`Cc1ccn(-c2ccnc(N3CCSCC3)n2)n1`: the cytotoxicity at 70.5 h is -0.283%.
The value for `COc1cccc(-c2noc(-c3ccc(N4CC(N)C4)nc3)n2)c1OC` was -0.582%.
The value for `Cc1noc(C)c1CC(=O)N1CCC(c2ccn3nccc3n2)CC1` was 0.22%; that for `CCOCC(=O)NC1(c2cccc(Cl)c2)CC1` was -8.22%.
Next, `Cc1nn(C)c2ncc(CN3CCN(c4ncccn4)CC3)cc12`: -21.9%; `Cc1cn[nH]c1C1COCCN1C(=O)c1ccc2c(c1)CCCC2` (stereo not given): -3.65%; `CSCCC1c2nc[nH]c2CCN1Cc1cc(Cl)ccc1O` (stereo not given): -5.87%.
With `CNC(=O)c1cccc(NC(=O)CN2CCCN(S(C)(=O)=O)CC2)c1`, the cytotoxicity at 70.5 h is -5.6%.
Take `COC(=O)c1cc(OCC2CCC2)cc(C(=O)N[C@@H](C)CO)c1`: the cytotoxicity at 70.5 h is -22.2%.
On to `NC(=O)C1CCN(C(=O)c2cc(Br)ccc2-n2cnnn2)CC1`, for which the cytotoxicity at 70.5 h amounted to 27.7%.
As to `CC(C(=O)NCc1ccnc(N2CCCC2)c1)n1cncn1` (stereo not given), the cytotoxicity at 70.5 h is -1.47%.
Regarding `O=C(CCc1ccccc1)N1CC(n2cncn2)C1`, the cytotoxicity at 70.5 h was -7.88%.
As to `c1ccc(CO[C@@H]2CN(Cc3ccoc3)[C@@H]3COC[C@@H]32)nc1`, the cytotoxicity at 70.5 h was found to be 13%.
Take `Cn1c(Cn2ccnc2)nnc1C1CCCN(Cc2ccncc2)C1` (stereo not given): the cytotoxicity at 70.5 h was found to be 14%.
For `COc1cc(CNC2CCc3nc(C)nn3C2)cc2c1OCO2` (stereo not given), the cytotoxicity at 70.5 h was -5.53%.
Take `COc1c(NS(=O)(=O)c2ccc(F)c(C)c2)c(C)nn1C`: the cytotoxicity at 70.5 h is 0.334%.
For the compound `COCCNC(=O)N1CCSC2(CCCCC2)C1`, the cytotoxicity at 70.5 h was -4.21%.
`COc1cccc2ncn(C(C)Cn3cccn3)c(=O)c12` (stereo not given): the cytotoxicity at 70.5 h was -3.99%.
Consider `CCc1n[nH]c(C2CN(C(=O)c3ccnc(C)n3)CCO2)n1` (stereo not given), for which the cytotoxicity at 70.5 h is 13.5%.
Turning to `Clc1cc(N2CCN3CCCCC3C2)nc2[nH]ccc12` (stereo not given), the cytotoxicity at 70.5 h was -0.311%.
As for `Cn1cccc1C(=O)N1C[C@H]2CN(Cc3cccc(F)c3)C[C@H]2C1`, the cytotoxicity at 70.5 h is -6.11%.
As for `O=C(c1ccc2c(c1)OCO2)N1CCC(C(=O)O)(c2ccccc2)CC1`, the cytotoxicity at 70.5 h was -11.1%.
On to `CNC(=O)C1CCCN(C(=O)OC)C1` (stereo not given), for which the cytotoxicity at 70.5 h was -5.12%.
The value for `CCOc1ccc(C(=O)N(C)Cc2nccn2CC(F)(F)F)cc1` was -2.52%.

The record behind these values is ChEMBL document CHEMBL3507680, “University of Dundee, Gates Library screen for HepG2 cell viability”.
